The values below come from ChEMBL document CHEMBL1201862, “PubChem BioAssay data set” (2004).

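Cultured in 96-well plates, cells were exposed to test compound for 48 hours across five concentrations. GI50 marks 50% less growth.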 Active and inactive are the calls of the source. Cut-off read from the data, not from the text of the source: active = GI50 up to about 1.1 µM and inactive = higher.

Test systems include 786-0; A498; CCRF-CEM; HOP-62; IGROV-1; K562; LOX IMVI; MDA-MB-435; NCI-H23; NCI-H522; SF-268; SF-539; SK-MEL-28; SK-MEL-2; SR; U-251; UACC-257; UACC-62; RPMI-8226; SNB-75.
Experiment in all cases: DTP human tumour cell line panel, 48 h

In the case of `Fc1ccccc1-c1cc(S)c2cc3c(cc2n1)OCO3`, the GI50 was 10.4 µM (inactive) with 786-0; 10.4 µM (inactive) in the assay with A498; 13.4 µM (inactive) in the assay on CCRF-CEM; > 70.5 µM (inactive) in the assay on HOP-62; 7.93 µM (inactive) in the assay on IGROV-1; 13.1 µM (inactive) in the assay with K562. The GI50 with LOX IMVI was 10.9 µM (inactive); in the assay on MDA-MB-435, 3.59 µM (inactive); in the assay with NCI-H23, 9.55 µM (inactive); with NCI-H522 it was 13.8 µM (inactive); in the assay with SF-268 it was > 44.8 µM (inactive); with SF-539 it was 7.18 µM (inactive). Further, the GI50 in the assay on SK-MEL-28 is 27.9 µM (inactive); in the assay on SK-MEL-2, 7.69 µM (inactive); in the assay on SR, 4.34 µM (inactive); with U-251 it was 4.33 µM (inactive); in the assay on UACC-257, 8.47 µM (inactive); in the assay on UACC-62 it was 3.71 µM (inactive).
In the case of `C=C(c1ccccc1)c1ccccc1-c1cc(-c2ccccc2)cc(-c2ccccc2)n1`, the GI50 in the assay on 786-0 is > 100 µM (inactive); with A498 it was > 100 µM (inactive); in the assay on CCRF-CEM, 84.9 µM (inactive); in the assay on HOP-62 it was > 100 µM (inactive); in the assay with IGROV-1, > 100 µM (inactive); with K562, 53.6 µM (inactive). Besides, the GI50 in the assay on LOX IMVI is > 100 µM (inactive); with MDA-MB-435, 82.2 µM (inactive); in the assay with NCI-H23, > 100 µM (inactive); with NCI-H522, 28.4 µM (inactive); in the assay with RPMI-8226, 58.1 µM (inactive); in the assay on SF-268, > 100 µM (inactive). Further, the GI50 with SF-539, with SK-MEL-28, in the assay on SNB-75, with SR, in the assay on U-251 and in the assay with UACC-257 was > 100 µM (inactive) in each case. The GI50 in the assay with UACC-62 is 74.6 µM (inactive).
On to `CC1=CC(=O)CC(C)(C)C1/C=C/C(C)=C/C=C/C(C)=C/C=C/C=C(C)/C=C/C=C(C)/C=C/C1C(C)=CC(=O)CC1(C)C` (stereo unspecified), for which the GI50 was 34.4 µM (inactive) with 786-0; > 100 µM (inactive) with A498; 21.6 µM (inactive) in the assay on CCRF-CEM; 42 µM (inactive) in the assay on HOP-62; 31.3 µM (inactive) with IGROV-1; 37.2 µM (inactive) with K562. In addition, the GI50 with LOX IMVI was 29.3 µM (inactive); in the assay with MDA-MB-435, 23.4 µM (inactive); in the assay with NCI-H23, 36.3 µM (inactive); in the assay on NCI-H522, 20.8 µM (inactive); in the assay on RPMI-8226 it was 25.2 µM (inactive); in the assay with SF-268, 44.4 µM (inactive). The GI50 was 45.5 µM (inactive) with SF-539; > 100 µM (inactive) in the assay with SK-MEL-28; > 100 µM (inactive) in the assay with SK-MEL-2; 66.1 µM (inactive) in the assay on SR; 38.7 µM (inactive) in the assay with U-251; 61.2 µM (inactive) in the assay on UACC-257.
For `O=C(CSc1nnc(SCC(=O)NN=C2CCCCC2)s1)NN=C1CCCCC1`, the GI50 with 786-0, with A498, with CCRF-CEM, with HOP-62, in the assay on IGROV-1 and in the assay with K562 was > 100 µM (inactive) each time. Besides, the GI50 in the assay on LOX IMVI, with MDA-MB-435, in the assay on NCI-H23, in the assay on NCI-H522, in the assay with RPMI-8226 and in the assay on SF-268 was > 100 µM (inactive) throughout. Moreover, the GI50 with SF-539, in the assay on SK-MEL-28, in the assay on SNB-75, in the assay with SR, with U-251 and in the assay on UACC-257 was > 100 µM (inactive) throughout. Also, in the assay on UACC-62, the GI50 was > 100 µM (inactive).
Regarding `CC1=C(C(=O)NNC(=O)c2ccccc2O)CC(C(=O)NNC(=O)c2ccccc2O)=C(C)N1`, the GI50 was 3.13 µM (inactive) with 786-0; 1.79 µM (inactive) in the assay with A498; 4.7 µM (inactive) with CCRF-CEM; 5.46 µM (inactive) in the assay with HOP-62; 0.302 µM (active) with IGROV-1; 0.338 µM (active) with K562. The GI50 is 2.58 µM (inactive) in the assay with LOX IMVI; 0.425 µM (active) in the assay with MDA-MB-435; 2.1 µM (inactive) with NCI-H23; 2.72 µM (inactive) with NCI-H522; 0.752 µM (active) in the assay on RPMI-8226; 0.22 µM (active) with SF-268. Moreover, the GI50 was 0.796 µM (active) in the assay on SF-539; > 77.3 µM (inactive) in the assay on SK-MEL-28; 0.292 µM (active) with SNB-75; 0.64 µM (active) in the assay on SR; 0.459 µM (active) in the assay with U-251; 27.2 µM (inactive) with UACC-257. Also, in the assay with UACC-62, the GI50 is 0.389 µM (active).
`CCCCNC(=S)N/N=C/c1cccc(C)n1`: the GI50 with 786-0 was 35.2 µM (inactive); in the assay with A498, 36.1 µM (inactive); with CCRF-CEM it was 6.9 µM (inactive); in the assay on HOP-62, 23.9 µM (inactive); in the assay on IGROV-1, 58.3 µM (inactive); in the assay with K562 it was 13.2 µM (inactive). Also, the GI50 was 34.9 µM (inactive) in the assay on LOX IMVI; 42.2 µM (inactive) in the assay on MDA-MB-435; 59.3 µM (inactive) with NCI-H23; 18.6 µM (inactive) in the assay with NCI-H522; 25.5 µM (inactive) with RPMI-8226; 34 µM (inactive) in the assay on SF-268. The GI50 in the assay with SF-539 is 29.7 µM (inactive); with SK-MEL-28 it was 48.5 µM (inactive); in the assay with SNB-75, 67.6 µM (inactive); in the assay with SR, 19.5 µM (inactive); with U-251 it was 44.2 µM (inactive); in the assay with UACC-257, 37.8 µM (inactive). For the same compound, the GI50 in the assay on UACC-62 is 25.6 µM (inactive).
In the case of `COC(=O)c1c([N+](=O)[O-])ncn1[C@H]1OC[C@@H](OC(C)=O)[C@@H](OC(C)=O)[C@@H]1OC(C)=O`, the GI50 in the assay on 786-0, in the assay on A498, in the assay on CCRF-CEM, in the assay on HOP-62, with IGROV-1 and in the assay on K562 was > 100 µM (inactive) throughout. Also, the GI50 in the assay on LOX IMVI, in the assay with MDA-MB-435, in the assay on NCI-H23, in the assay with NCI-H522, with SF-268 and with SF-539 was > 100 µM (inactive) in each case. Further, the GI50 in the assay with SK-MEL-28, with SNB-75, with SR, in the assay with U-251, in the assay on UACC-257 and in the assay with UACC-62 was > 100 µM (inactive) in each case.
As to `O=c1[nH]n(Cc2ccccc2CCl)c2ccc([N+](=O)[O-])cc12`, the GI50 is 55.5 µM (inactive) in the assay with 786-0; 62.2 µM (inactive) in the assay on A498; 28.7 µM (inactive) in the assay on CCRF-CEM; 47.6 µM (inactive) with HOP-62; > 100 µM (inactive) in the assay on IGROV-1; 42.4 µM (inactive) in the assay with K562. For the same compound, the GI50 in the assay with LOX IMVI is 55.7 µM (inactive); with MDA-MB-435, 35.1 µM (inactive); in the assay on NCI-H23, 83 µM (inactive); with NCI-H522, 22.9 µM (inactive); in the assay with RPMI-8226, 32 µM (inactive); with SF-268, 35.3 µM (inactive). The GI50 is 58.3 µM (inactive) with SF-539; 34.5 µM (inactive) with SK-MEL-28; 43.4 µM (inactive) in the assay with SK-MEL-2; 33.6 µM (inactive) in the assay with SR; 42.3 µM (inactive) with U-251; 64.4 µM (inactive) in the assay with UACC-257. Further, the GI50 in the assay on UACC-62 is 30.5 µM (inactive).
For the compound `Cc1c(Br)c(Br)c(C)[s+]1[O-]`, the GI50 in the assay with 786-0 is 16.9 µM (inactive); with A498, 27.4 µM (inactive); in the assay with CCRF-CEM, 1.92 µM (inactive); in the assay with HOP-62 it was 15.6 µM (inactive); in the assay on IGROV-1 it was 26.7 µM (inactive); with K562, 25.6 µM (inactive). Also, the GI50 with LOX IMVI is 11.1 µM (inactive); in the assay with MDA-MB-435 it was 9.16 µM (inactive); with NCI-H23 it was 25.3 µM (inactive); in the assay with NCI-H522, 8.02 µM (inactive); in the assay on RPMI-8226 it was 3.8 µM (inactive); in the assay on SF-268 it was 25.2 µM (inactive). In addition, the GI50 is 5.38 µM (inactive) with SF-539; 17.6 µM (inactive) with SK-MEL-28; 13.3 µM (inactive) with SK-MEL-2; 3.28 µM (inactive) in the assay with SR; 11.6 µM (inactive) in the assay with U-251; 12.2 µM (inactive) with UACC-257. Besides, in the assay on UACC-62, the GI50 was 20.4 µM (inactive).
In the case of `COc1ccc(C2(O)c3ccccc3C(=O)N(C)C2(O)c2ccc(OC)cc2)cc1` (stereo unspecified), the GI50 in the assay on 786-0 is 81.5 µM (inactive); in the assay on A498, 73.1 µM (inactive); in the assay on CCRF-CEM, 51.8 µM (inactive); in the assay with HOP-62 it was 70.8 µM (inactive); in the assay on IGROV-1, 28.6 µM (inactive); in the assay with K562, 55.8 µM (inactive). For the same compound, the GI50 is 30.1 µM (inactive) in the assay on LOX IMVI; 17.3 µM (inactive) in the assay on MDA-MB-435; > 100 µM (inactive) with NCI-H23; 16.1 µM (inactive) in the assay on NCI-H522; > 100 µM (inactive) in the assay with RPMI-8226; 28.7 µM (inactive) in the assay on SF-268. The GI50 with SF-539 was > 100 µM (inactive); in the assay with SK-MEL-28, 25.6 µM (inactive); with SK-MEL-2, 43.4 µM (inactive); with SR, 36.3 µM (inactive); in the assay on U-251 it was 52.7 µM (inactive); with UACC-257, 61.9 µM (inactive). Further, the GI50 in the assay with UACC-62 was 48.1 µM (inactive).
Turning to `COc1ccc(NC(=S)N/N=C(\c2ccccc2)c2ccccn2)cc1`, the GI50 in the assay with 786-0 is < 0.0267 µM (active); in the assay with A498 it was 0.587 µM (active); in the assay on CCRF-CEM, 0.01 µM (active); in the assay with HOP-62, 0.06 µM (active); with IGROV-1 it was < 0.01 µM (active); in the assay on K562, < 0.01 µM (active). Further, the GI50 in the assay with LOX IMVI is < 0.0152 µM (active); in the assay with MDA-MB-435 it was 1.96 µM (inactive); in the assay on NCI-H23, < 0.01 µM (active); in the assay with NCI-H522 it was 0.0552 µM (active); in the assay on RPMI-8226 it was < 0.01 µM (active); with SF-268, 0.123 µM (active). The GI50 with SF-539 is 0.348 µM (active); in the assay on SK-MEL-28, 2.56 µM (inactive); in the assay on SK-MEL-2, 2.5 µM (inactive); in the assay on SR, < 0.01 µM (active); in the assay with U-251, < 0.0198 µM (active); with UACC-257, < 0.01 µM (active). Further, the GI50 in the assay with UACC-62 is 0.104 µM (active).

For orientation: GI50 means the concentration that inhibits growth by half.
